Blank lines part the entries; values can stand above or below the compound they belong to. Non-standard residues stand in square brackets, D forms with d. Residues, ends and D or L forms follow the SMILES beside them. *: point of attachment. Benzoyl(4-OPh) = O=C(c1ccc(Oc2ccccc2)cc1)*; Lys(Et2) = CCN(CC)CCCC[C@H](N)C(=O)O; d(aIle) = CC[C@H](C)[C@@H](N)C(=O)O; Gly(cPent) = N[C@H](C(=O)O)C1CCCC1; NH(propargyl) = C#CCN*
Experiments:
[1] = target: Histone acetyltransferase p300 (Homo sapiens, UniProt Q09472); assay: Affinity Biochemical interaction: (inhibition of acetyl-transferase reaction) EUB0002628aAD EP300; type: functional; parameters: mode of action Inhibitor, recommended concentration 1 uM
[2] = target: Alpha-ketoglutarate-dependent dioxygenase alkB homolog 3 (Homo sapiens, UniProt Q96Q83)
[3] = target: 3',5'-cyclic-AMP phosphodiesterase 4B (Homo sapiens, UniProt Q07343); assay: Affinity Biochemical interaction: (Inhibition of enzyme activity, scintillation proximity assay with radiolabelled [3H]cAMP) EUB0002694a PDE4B; type: functional; parameters: mode of action Inhibitor, recommended concentration 1 uM
[4] = target: 3',5'-cyclic-AMP phosphodiesterase 4D (Homo sapiens, UniProt Q08499); assay: Affinity Biochemical interaction: ([…]) EUB0002544a PDE4D; type: cell-free; parameters: mode of action Inhibitor, recommended concentration 1 uM
[5] = target: Ubiquitin carboxyl-terminal hydrolase 14 (Homo sapiens, UniProt P54578)
Acid ceramidase = Acid ceramidase (Homo sapiens, UniProt Q13510); assay: Affinity Biochemical interaction: (inhibition of substrate hydrolysis determined through mass spectrometry) EUB0002527a ASAH1; type: functional; parameters: mode of action Inhibitor, recommended concentration 1 uM
[6] = target: Dual specificity calcium/calmodulin-dependent 3',5'-cyclic nucleotide phosphodiesterase 1A (Homo sapiens, UniProt P54750); assay: Affinity Biochemical interaction: (inhibition of [3H]cGMP cleavage, scintillation proximity assay) EUB0002562a PDE1A; type: functional; parameters: mode of action Inhibitor, recommended concentration 1 uM
[7] = target: Triacylglycerol hydrolase DDHD2 (Homo sapiens, UniProt O94830); assay: Affinity Biochemical interaction: (Gel-based competitive activity-based protein profiling with HT-01 probe and membranes) EUB0002612a DDHD2; type: functional, cell membranes; parameters: mode of action Inhibitor, recommended concentration 1 uM
[8] = target: cAMP and cAMP-inhibited cGMP 3',5'-cyclic phosphodiesterase 10A (Homo sapiens, UniProt Q9Y233); assay: Affinity Biochemical interaction: (inhibition of enzyme activity in cleaving radiolabelled substrate [3H]cAMP) EUB0002682aCl PDE10A; type: functional; parameters: mode of action Inhibitor, recommended concentration 1 uM
[9] = target: T1, Protein arginine N-methyltransferase 5 (Homo sapiens, UniProt O14744); assay: Affinity Biochemical interaction: (inhibition of histone H4 (1-21) methylation) EUB0002319a PRMT5; type: functional; parameters: mode of action Inhibitor, recommended concentration 1 uM
[10] = target: T1, Protein arginine N-methyltransferase 5; assay: Affinity Biochemical interaction: (inhibition of histone H4 methylation) EUB0002319a PRMT5; type: functional; parameters: mode of action Inhibitor, recommended concentration 1 uM
[11] = target: T2, Histone-lysine N-methyltransferase SETD7 (Homo sapiens, UniProt Q8WTS6); assay: Affinity Biochemical interaction: (inhibition of histone H3 methylation) EUB0002319a SETD7; type: functional; parameters: mode of action Inhibitor, recommended concentration 1 uM
[12] = target: T2, Histone-lysine N-methyltransferase SETD7; assay: Affinity Biochemical interaction: (inhibition of histone H3(1-21) methylation) EUB0002319a SETD7; type: functional; parameters: mode of action Inhibitor, recommended concentration 1 uM
Procathepsin L = Procathepsin L (Homo sapiens, UniProt P07711); assay: Affinity Biochemical interaction: (enzymatic assay (fluorogenic substrate cleavage)) EUB0002529a CTSL; type: functional; parameters: mode of action Inhibitor, recommended concentration 1 uM
[13] = target: T3, Chromobox protein homolog 8 (Homo sapiens, UniProt Q9HC52); assay: Affinity Biochemical interaction: (Thermal Shift Assay) EUB0002326a CBX8; parameters: mode of action Inhibitor, recommended concentration 1 uM
T3 sequence (Q9HC52 whole entry): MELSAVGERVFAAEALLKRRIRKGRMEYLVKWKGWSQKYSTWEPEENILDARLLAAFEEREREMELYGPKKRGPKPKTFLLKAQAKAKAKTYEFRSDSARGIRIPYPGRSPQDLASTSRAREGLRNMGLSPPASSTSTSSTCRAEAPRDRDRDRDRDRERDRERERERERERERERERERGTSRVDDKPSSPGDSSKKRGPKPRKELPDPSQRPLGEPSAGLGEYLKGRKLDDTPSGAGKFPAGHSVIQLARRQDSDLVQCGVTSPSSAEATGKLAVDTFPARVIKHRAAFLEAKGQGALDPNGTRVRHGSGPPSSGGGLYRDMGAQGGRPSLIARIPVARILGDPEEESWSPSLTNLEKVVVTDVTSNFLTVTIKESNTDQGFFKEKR

[14] = target: T3, Chromobox protein homolog 8; assay: Affinity Biochemical interaction: (MST (fluorescein-conjugated)) EUB0002326a CBX8; parameters: mode of action Inhibitor, recommended concentration 1 uM
[15] = target: T3, Chromobox protein homolog 8; assay: Affinity Biochemical interaction: (Fluorescence polarisation (fluorescein conjugated)) EUB0002326a CBX8; type: functional; parameters: mode of action Inhibitor, recommended concentration 1 uM
[16] = target: 3',5'-cyclic-AMP phosphodiesterase 4C (Homo sapiens, UniProt Q08493); assay: Affinity Biochemical interaction: (fluorescence polarisation assay, inhibition of enzyme activity) EUB0002577a PDE4C; type: functional; parameters: mode of action Inhibitor, recommended concentration 1 uM
[17] = target: 3',5'-cyclic-AMP phosphodiesterase 4A (Homo sapiens, UniProt P27815); assay: Affinity Biochemical interaction: (fluorescence polarisation assay, inhibition of enzyme activity) EUB0002577a PDE4A; type: functional; parameters: mode of action Inhibitor, recommended concentration 1 uM
[18] = target: T4, Nucleotide triphosphate diphosphatase NUDT15 (Homo sapiens, UniProt Q9NV35); assay: Affinity Biochemical interaction: (enzyme-coupled MG (Malachite Green) assay with […]) EUB0002330a NUDT15; type: functional; parameters: mode of action Inhibitor, recommended concentration 1 uM
[19] = target: T4, Nucleotide triphosphate diphosphatase NUDT15; assay: Affinity Biochemical interaction: (enzyme-coupled MG (Malachite Green) assay with 6-thio-dGTP) EUB0002330a NUDT15; type: functional; parameters: mode of action Inhibitor, recommended concentration 1 uM

T1 sequence (O14744 whole entry): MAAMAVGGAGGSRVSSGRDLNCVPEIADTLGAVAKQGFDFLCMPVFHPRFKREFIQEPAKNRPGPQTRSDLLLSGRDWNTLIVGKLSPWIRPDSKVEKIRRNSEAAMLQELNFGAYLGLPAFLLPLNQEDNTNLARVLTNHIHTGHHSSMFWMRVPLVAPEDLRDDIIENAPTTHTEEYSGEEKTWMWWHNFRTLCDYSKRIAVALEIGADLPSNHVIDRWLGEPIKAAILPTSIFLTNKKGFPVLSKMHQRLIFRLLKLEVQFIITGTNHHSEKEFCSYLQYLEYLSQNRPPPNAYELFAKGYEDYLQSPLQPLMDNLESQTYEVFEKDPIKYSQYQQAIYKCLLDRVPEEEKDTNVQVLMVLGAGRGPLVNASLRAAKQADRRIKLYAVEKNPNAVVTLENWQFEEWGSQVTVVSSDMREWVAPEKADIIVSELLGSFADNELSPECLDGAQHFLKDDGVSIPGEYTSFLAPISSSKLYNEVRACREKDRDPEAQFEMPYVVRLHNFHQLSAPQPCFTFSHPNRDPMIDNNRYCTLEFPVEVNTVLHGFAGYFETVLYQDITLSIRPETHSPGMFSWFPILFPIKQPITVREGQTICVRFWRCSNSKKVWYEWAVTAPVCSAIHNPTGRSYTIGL
T4 sequence (Q9NV35 whole entry): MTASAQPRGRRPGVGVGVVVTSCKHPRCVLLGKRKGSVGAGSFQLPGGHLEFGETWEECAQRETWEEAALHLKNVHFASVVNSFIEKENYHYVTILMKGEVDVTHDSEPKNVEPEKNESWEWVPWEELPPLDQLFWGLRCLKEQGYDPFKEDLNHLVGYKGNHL
T2 sequence (Q8WTS6 whole entry): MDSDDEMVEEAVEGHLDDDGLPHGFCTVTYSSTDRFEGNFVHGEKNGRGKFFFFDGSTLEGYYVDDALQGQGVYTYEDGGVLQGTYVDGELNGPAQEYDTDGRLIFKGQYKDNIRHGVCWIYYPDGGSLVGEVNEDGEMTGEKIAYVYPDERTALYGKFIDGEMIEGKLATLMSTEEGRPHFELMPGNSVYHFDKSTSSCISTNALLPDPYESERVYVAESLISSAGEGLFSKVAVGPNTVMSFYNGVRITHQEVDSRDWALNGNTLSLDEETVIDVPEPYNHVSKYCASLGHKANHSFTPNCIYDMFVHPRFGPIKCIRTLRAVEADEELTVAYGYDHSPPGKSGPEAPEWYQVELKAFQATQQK
Chain of Procathepsin L (P07711 whole entry): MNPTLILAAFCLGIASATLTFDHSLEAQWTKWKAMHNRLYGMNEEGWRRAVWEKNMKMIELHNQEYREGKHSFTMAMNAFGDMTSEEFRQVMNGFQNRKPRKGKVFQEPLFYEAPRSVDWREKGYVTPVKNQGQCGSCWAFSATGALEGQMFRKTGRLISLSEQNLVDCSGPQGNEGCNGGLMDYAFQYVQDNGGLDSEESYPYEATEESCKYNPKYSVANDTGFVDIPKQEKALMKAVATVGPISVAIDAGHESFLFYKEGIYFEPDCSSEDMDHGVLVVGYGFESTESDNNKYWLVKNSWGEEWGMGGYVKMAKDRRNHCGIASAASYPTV
Chain of Triacylglycerol hydrolase DDHD2 (O94830 whole entry): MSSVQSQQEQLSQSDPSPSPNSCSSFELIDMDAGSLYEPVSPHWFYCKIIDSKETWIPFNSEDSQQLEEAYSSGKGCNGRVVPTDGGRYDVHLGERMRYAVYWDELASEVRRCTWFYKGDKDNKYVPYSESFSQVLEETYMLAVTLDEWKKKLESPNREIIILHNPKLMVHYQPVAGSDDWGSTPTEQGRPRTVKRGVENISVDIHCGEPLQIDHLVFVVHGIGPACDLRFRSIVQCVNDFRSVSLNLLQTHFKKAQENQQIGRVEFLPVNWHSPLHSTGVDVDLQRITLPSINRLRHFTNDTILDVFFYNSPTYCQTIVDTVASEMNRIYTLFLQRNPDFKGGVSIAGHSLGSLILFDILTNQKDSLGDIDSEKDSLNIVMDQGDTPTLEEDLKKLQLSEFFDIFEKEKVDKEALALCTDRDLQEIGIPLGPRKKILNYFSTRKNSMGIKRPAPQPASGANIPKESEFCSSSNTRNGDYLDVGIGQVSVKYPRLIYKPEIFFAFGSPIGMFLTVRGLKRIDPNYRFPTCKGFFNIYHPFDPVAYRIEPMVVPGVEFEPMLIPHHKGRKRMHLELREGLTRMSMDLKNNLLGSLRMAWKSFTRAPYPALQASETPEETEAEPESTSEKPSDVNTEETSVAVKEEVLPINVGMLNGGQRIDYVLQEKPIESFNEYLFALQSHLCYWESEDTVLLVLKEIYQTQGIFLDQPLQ
Chain of Histone acetyltransferase p300 (Q09472 whole entry): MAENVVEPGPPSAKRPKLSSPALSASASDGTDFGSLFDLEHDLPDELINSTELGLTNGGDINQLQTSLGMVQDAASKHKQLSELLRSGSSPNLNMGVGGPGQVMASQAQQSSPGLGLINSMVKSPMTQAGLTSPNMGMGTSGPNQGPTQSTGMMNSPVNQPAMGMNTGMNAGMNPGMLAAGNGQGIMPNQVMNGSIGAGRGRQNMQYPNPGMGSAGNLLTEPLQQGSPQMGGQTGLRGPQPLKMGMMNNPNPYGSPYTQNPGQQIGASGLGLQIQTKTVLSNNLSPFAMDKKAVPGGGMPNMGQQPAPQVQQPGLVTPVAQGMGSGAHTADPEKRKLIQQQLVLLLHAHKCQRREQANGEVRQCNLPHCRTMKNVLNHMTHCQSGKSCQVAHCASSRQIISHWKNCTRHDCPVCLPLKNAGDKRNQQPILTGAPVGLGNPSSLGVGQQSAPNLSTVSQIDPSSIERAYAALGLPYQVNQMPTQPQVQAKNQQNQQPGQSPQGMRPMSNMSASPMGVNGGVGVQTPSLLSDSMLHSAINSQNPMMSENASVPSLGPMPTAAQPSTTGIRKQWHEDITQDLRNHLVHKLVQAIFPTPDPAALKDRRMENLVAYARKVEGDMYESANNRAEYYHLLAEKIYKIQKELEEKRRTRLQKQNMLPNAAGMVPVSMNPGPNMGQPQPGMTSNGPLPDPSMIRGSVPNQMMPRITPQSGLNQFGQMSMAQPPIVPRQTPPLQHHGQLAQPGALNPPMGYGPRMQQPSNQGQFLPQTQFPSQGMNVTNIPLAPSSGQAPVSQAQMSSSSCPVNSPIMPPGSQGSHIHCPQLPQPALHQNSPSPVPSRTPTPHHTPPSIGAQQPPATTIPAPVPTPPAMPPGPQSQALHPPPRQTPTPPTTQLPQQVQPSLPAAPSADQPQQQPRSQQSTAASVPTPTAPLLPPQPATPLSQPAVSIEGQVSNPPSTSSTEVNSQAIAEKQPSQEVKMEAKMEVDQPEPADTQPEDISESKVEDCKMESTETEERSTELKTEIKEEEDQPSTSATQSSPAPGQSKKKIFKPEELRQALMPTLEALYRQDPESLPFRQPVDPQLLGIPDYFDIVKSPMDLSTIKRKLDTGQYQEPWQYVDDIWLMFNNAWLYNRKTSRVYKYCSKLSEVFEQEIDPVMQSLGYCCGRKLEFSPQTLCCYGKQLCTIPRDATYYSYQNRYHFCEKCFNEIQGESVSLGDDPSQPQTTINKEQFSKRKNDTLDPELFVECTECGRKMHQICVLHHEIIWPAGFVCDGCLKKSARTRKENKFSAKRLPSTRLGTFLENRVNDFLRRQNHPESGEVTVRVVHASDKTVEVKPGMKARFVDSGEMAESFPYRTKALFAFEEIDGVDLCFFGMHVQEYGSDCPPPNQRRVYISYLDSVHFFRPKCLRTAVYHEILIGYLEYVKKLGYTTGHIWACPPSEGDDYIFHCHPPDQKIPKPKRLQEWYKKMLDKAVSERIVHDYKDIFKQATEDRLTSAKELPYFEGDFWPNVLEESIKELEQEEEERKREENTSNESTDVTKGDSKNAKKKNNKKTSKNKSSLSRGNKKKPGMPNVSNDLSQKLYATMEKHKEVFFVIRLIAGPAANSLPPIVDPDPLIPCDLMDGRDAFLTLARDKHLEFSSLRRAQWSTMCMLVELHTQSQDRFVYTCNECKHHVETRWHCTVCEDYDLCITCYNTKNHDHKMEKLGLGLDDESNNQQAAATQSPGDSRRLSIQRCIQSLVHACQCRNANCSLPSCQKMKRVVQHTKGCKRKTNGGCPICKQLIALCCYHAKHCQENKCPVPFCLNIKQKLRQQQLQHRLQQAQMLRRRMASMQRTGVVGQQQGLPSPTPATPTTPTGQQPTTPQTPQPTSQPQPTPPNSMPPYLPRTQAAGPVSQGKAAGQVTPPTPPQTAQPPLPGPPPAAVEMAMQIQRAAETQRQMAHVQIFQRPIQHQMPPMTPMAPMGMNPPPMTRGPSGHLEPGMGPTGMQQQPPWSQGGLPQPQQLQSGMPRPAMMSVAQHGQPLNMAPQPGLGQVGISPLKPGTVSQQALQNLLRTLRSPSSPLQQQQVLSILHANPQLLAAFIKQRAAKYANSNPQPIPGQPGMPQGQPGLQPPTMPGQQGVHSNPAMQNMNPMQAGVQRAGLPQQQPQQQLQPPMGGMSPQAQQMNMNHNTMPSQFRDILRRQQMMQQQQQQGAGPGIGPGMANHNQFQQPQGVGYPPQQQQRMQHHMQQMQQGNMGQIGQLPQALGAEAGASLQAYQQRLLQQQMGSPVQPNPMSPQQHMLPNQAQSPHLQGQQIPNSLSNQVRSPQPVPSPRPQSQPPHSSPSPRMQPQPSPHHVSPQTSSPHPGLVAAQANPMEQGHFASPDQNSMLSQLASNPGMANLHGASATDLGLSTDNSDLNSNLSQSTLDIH
Chain of Acid ceramidase (Q13510 22-142 limits assumed): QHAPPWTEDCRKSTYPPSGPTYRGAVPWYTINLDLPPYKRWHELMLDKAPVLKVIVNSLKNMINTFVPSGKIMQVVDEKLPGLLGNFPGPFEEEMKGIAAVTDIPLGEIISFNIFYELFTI
Chain of Acid ceramidase (Q13510 143-395 limits assumed): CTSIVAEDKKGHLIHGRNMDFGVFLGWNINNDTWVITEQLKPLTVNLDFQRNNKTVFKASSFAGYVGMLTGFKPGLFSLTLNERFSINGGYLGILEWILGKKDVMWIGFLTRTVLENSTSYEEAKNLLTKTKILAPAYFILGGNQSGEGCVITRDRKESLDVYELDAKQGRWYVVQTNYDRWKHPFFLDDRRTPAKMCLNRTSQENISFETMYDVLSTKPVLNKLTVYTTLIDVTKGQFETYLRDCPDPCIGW

IC50 [1]: ~50 nM
SMILES: CC(=O)N[C@@H](CCCCNC(=O)CSCCNC(=O)CCNC(=O)[C@H](O)C(C)(C)COP(=O)(O)OP(=O)(O)OC[C@H]1O[C@@H](n2cnc3c(N)ncnc32)[C@H](O)[C@@H]1OP(=O)(O)O)C(N)=O

IC50 [2]: 670 nM
SMILES: Cc1ccc2[nH]c(-n3nc(C)c(Cc4ccccc4)c3O)nc2c1

IC50 [3]: < 1 nM
SMILES: N#Cc1ccc(-c2c3n(c4cccnc24)CCN(C2CC2)C3=O)cc1F [PF-06445974]

IC50 [4]: 37 nM
SMILES: C[C@@H](Oc1ccc(CNC(=O)c2cccnc2Oc2ccc3c(c2)OCO3)c(F)c1)C(=O)O

IC50 [5]: 600 nM
SMILES: Cc1cc(C(=O)CN2CCCCC2)c(C)n1-c1ccc(Cl)cc1

IC50 (Acid ceramidase): 29 nM
SMILES: CCCCCCNC(=O)n1cc(F)c(=O)[nH]c1=O [CARMOFUR]

IC50 [6]: 97.6 nM
SMILES: Cn1c(OC[C@H]2CC[C@H](C(F)(F)F)CC2)nn2c(C3CCOCC3)ncc2c1=O

IC50 [7]: 1.3 nM
SMILES: O=C(N(CCc1ccccc1)C1CCCCC1)n1ncc(-c2ccc(OC(F)(F)F)cc2)n1

IC50 [8]: 2.8 nM
SMILES: Cc1ccc2c(c1)nc(/C=C/c1cccc3cccnc13)n2-c1cccc(OCCCN2CCN(C)CC2)c1

IC50 [9]: 310 nM
IC50 [10]: 690 nM
IC50 [11]: 9100 nM
IC50 [12]: 2380 nM
SMILES: Nc1ncnc2c1ncn2[C@@H]1O[C@H](C[C@@H](N)CC[C@H](N)C(=O)O)[C@@H](O)[C@H]1O [SINEFUNGIN]

Ki (Procathepsin L): 82 nM
SMILES: Cn1nc(C(C)(C)C)cc1C(=O)NC(Cc1cccc(Cl)c1)C(=O)NCC#N (stereo unspecified)

SMILES: C#CCNC(=O)[C@H](CO)NC(=O)[C@H](CCCCN(CC)CC)NC(=O)[C@H](NC(=O)[C@@H](NC(=O)c1ccc(Oc2ccccc2)cc1)C1CCCC1)[C@@H](C)CC ({Benzoyl(4-OPh)}-[Gly(cPent)][d(aIle)][Lys(Et2)]S-{NH(propargyl)})
Kd [13]: 500 nM
Kd [14]: 700 nM
Kd [15]: 800 nM

IC50 [16]: 164 nM
IC50 [17]: 113 nM
SMILES: CC(C)NC(=O)c1ccc(OC(F)F)c(OCC2CC2)c1

IC50 [18]: 25 nM
IC50 [19]: 57 nM
SMILES: O=C(c1ccc2[nH]ccc2c1)N1CCN(S(=O)(=O)c2ccc3[nH]c(=O)oc3c2)CC1

From ChEMBL document CHEMBL5723035, “Affinity Biochemical Literature for EUbOPEN Chemogenomic Library” (2024)
